Results on 24 molecules are retold here after patent publication US9365583B2, “Substituted pyrazoles and uses thereof” (Genentech, Inc., priority 2013, dated 2016).

The target of this assay is T1, N-terminally GST-tagged DLK (catalytic domain amino acid 1-520) (Homo sapiens, UniProt Q12852).
T1 construct: N-terminally GST-tagged DLK (catalytic domain amino acid 1-520); purchased Carna Bioscience
T1 sequence (Q12852 1-520): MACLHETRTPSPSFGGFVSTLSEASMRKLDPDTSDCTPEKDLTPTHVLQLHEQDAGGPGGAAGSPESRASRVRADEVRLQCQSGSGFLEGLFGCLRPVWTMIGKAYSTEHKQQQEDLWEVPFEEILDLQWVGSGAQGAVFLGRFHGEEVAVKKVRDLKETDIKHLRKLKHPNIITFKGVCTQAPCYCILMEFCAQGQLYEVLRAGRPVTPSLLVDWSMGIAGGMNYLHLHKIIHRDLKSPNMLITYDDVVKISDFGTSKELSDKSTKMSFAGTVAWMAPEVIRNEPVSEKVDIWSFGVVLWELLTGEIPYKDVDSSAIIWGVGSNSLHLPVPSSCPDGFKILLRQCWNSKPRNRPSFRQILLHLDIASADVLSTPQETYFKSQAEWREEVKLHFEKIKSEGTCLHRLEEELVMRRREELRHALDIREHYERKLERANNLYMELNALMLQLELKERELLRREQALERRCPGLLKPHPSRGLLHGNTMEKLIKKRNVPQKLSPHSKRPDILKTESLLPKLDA
Put plainly: DLK TR-FRET inhibition assay. The class given is biochemical. The settings on record: 5 nM GST-DLK, 40 nM HIS-MKK4 K131M substrate, 30 μM ATP, 60 minutes at ambient temperature. An outline of the steps: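 Phosphorylated MKK4 was quantified by TR-FRET (Eu-labelled anti-phospho-MKK4, D2 anti-HIS; 3 h, 665 and 615 nm emission) after EDTA quench. Reactions held 5 nM GST-tagged DLK catalytic domain (1-520), 40 nM HIS-MKK4 K131M substrate, 30 μM ATP and compound (3-fold series from 20 uM), 60 min, room temperature, pH 7.5.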
For orientation: In TR-FRET formats the signal depends on donor and acceptor labels being close together.
In general, Ki refers to the dissociation constant of the complex between target and ligand, obtained from inhibition or displacement. A higher Ki goes with weaker binding. Take `CC(C)n1nc(-c2cnc(N)c(C(F)(F)F)c2)cc1[C@H]1[C@@H]2C[C@@]3(CCN3CC(F)F)C[C@@H]21` [compound 148, 5-(5-((1′R,2r,5′S,6′r)-1-(2,2-difluoro-ethyl)spiro[azetidine-2,3′-bicyclo[3.1.0]hexan]-6-yl)-1-isopropyl-1H-pyrazol-3-yl)-3-(trifluoro-methyl)pyridin-2-amine]: the Ki came out at 8.9 nM.

`Nc1ncc(-c2cc([C@H]3[C@@H]4C[C@H](N5CCCOCC5)C[C@@H]43)n(CC(F)F)n2)cc1C(F)(F)F` [compound 136, 5-(5-((1R,3r,5S,6r)-3-(1,4-oxazepan-4-yl)bicyclo[3.1.0]hexan-6-yl)-1-(2,2-difluoroethyl)-1H-pyrazol-3-yl)-3-(trifluoromethyl) pyridin-2-amine]: the inhibition constant Ki is 7.1 nM.

Regarding `CC(C)n1nc(-c2cnc3cnn([C@H](C)c4ccccn4)c3c2)cc1[C@H]1[C@@H]2C[C@H](N3CCOCC3)C[C@@H]21` [compound 33, 4-((1R3R,5S,6r)-6-(1-isopropyl-3-(1-((R)-1-(pyridin-2-yl)ethyl)-1H-pyrazolo[4,3-b]pyridin-6-yl)-1H-pyrazol-5-yl)bicyclo[3.10]hexan-3-yl)morpholine], the affinity, expressed as Ki, was 123 nM.

`CC(C)n1nc(-c2cnc(N)c(C(F)(F)F)c2)cc1[C@H]1[C@@H]2C[C@@H](N3CCN(C4COC4)CC3)C[C@@H]21` [compound 117, 5-(1-isopropyl-5-((1R,3s,5S,6r)-3-(4-(oxetan-3-yl)piperazin-1-yl)bicyclo[3.1.0]hexan-6-yl)-1H-pyrazol-3-yl)-3-(trifluoromethyl) pyridin-2-amine] had a Ki of 5.26 nM.

`COCCN1CC[C@@]12C[C@@H]1[C@H](C2)[C@H]1c1cc(-c2cnc(N)c(C(F)(F)F)c2)nn1C(C)C` [compound 161, 5-(1-isopropyl-5-((1′R,2r,5′S,6′r)-1-(2-methoxyethyl)spiro [azetidine-2,3′-bicyclo[3,1.0]hexan]-6′-yl)-1H-pyrazol-3-yl)-3-(trifluoro-methyl)pyridin-2-amine]: the affinity corresponds to a Ki of 2.5 nM.

`CC(C)n1nc(-c2cnc(N)c(OC(F)(F)F)c2)cc1[C@H]1[C@@H]2C[C@@H](N3CCCOCC3)C[C@@H]21` [compound 99, 5-(5-((1R,3s,5S,6r)-3-(1,4-oxazepan-4-yl)bicyclo[3.1.0]hexan-6-yl)-1-isopropyl-1H-pyrazol-3-yl)-3-(trifluoromethoxy)pyridin-2-amine] displayed a Ki of 1.16 nM. This Ki lies about 2.2-fold lower than the previous one.

The molecule “3-(difluoromethoxy)-5-(5- ((1R,3r,5S,6r)-3-(3-fluoroazetidin-1- yl)bicyclo[3.1.0]hexan-6-yl)-1- isopropyl-1H-pyrazol-3-yl) pyridin-2-amine [compound 60]” came in with a Ki of 2.26 nM.

`CC(C)n1nc(-c2cnc(N)c(OC(F)(F)F)c2)cc1[C@H]1[C@@H]2C[C@@H](N3CCOC[C@@H]3C)C[C@@H]21` [compound 104, 5-(1-isopropyl-5-((1R,3s,5S,6S)-3-((S)-3-methylmorpholino)bicyclo[3.1.0]hexan-6-yl)-1H-pyrazol-3-yl)-3-(trifluoromethoxy) pyridin-2-amine] gave an inhibitory constant (Ki) of 2.43 nM.

In the case of `CC(C)n1nc(-c2cnc(N)c(C(F)(F)F)c2)cc1[C@H]1[C@@H]2C[C@H](N(C)C)C[C@@H]21` [compound 188, 5-(5-((lR,3r,5S,6r)-3-(dimethylamino)bicyclo[3.1,0]hexan-6-yl)-1-isopropyl-1 H-pyrazol-3-yl)-3-(trifluoromethyl)pyridin-2-am inc], the Ki came out at 2.8 nM.

Consider `CC(C)n1nc(-c2cnc(N)c(OC(F)F)c2)cc1C1[C@H]2CC(N3CCOCC(F)C3)C[C@@H]12` (single isomer, unassigned) [compound 175], for which affinity was put at a Ki of 5.5 nM.

`CC(C)n1nc(-c2cnc(N)c(C(F)(F)F)c2)cc1[C@H]1[C@@H]2C[C@@H](n3ccnc3)C[C@@H]21` [compound 114, 5-(5-((1R,3s,5S,6r)-3-(1H-imidazol-1-yl)bicyclo[3.1.0]hexan-6-yl)-1-isopropyl-1H-pyrazol-3-yl)-3-(trifluoromethyl)pyridin-2-amine] displayed a Ki of 15.1 nM.

In turn, `CC(C)n1nc(-c2cnc(N)c(OC(F)(F)F)c2)cc1[C@H]1[C@@H]2C[C@@H](N3C[C@@H]4C[C@H]3CN4C)C[C@@H]21` [compound 209, 5-(1-isopropyl-5-((1R,3s,5S,6S)-3-((1S,4S)-5-methyl-2,5-diazabicyclo [2.2.1]heptan-2-yl)bicyclo [3.1.0]hexan-6-yl)-1H-pyrazol-3-yl)-3-(trifluoromethoxy) pyridin-2-amine] had a Ki of 2.6 nM. Against the preceding molecule, the Ki is about 5.8-fold lower.

In turn, `CC(C)n1nc(-c2cnc(N)c(C(F)(F)F)c2)cc1[C@H]1[C@@H]2C[C@@H](N3CC(F)C3)C[C@@H]21` [compound 37, 5-(5-((1R,3s,5S,6r)-3-(3-fluoro-azetidin-1-yl)bicyclo[3.1.0]hexan-6-yl)-1-isopropyl-1H-pyrazol-3-yl)-3-(trifluoromethyl)pyridin-2-amine] returned a Ki of 2.37 nM.

The molecule `CC(C)n1nc(-c2cnc(N)c(C(F)(F)F)c2)cc1[C@H]1[C@@H]2CC(C#N)C[C@@H]21` (single isomer, unassigned) [compound 191] registered a Ki of 7.8 nM. Against the preceding molecule, the Ki is about 3.3-fold higher.

With `CC(C)n1nc(-c2cnc(N)c(C(F)(F)F)c2)cc1[C@H]1[C@@H]2C[C@H](N3C[C@@H]4C[C@H]3CN4C)C[C@@H]21` [compound 200, 5-(1-isopropyl-5-((1R,3r,5S,6S)-3-((1S,4S)-5-methyl-2,5-diazabicyclo [2.2.1]heptan-2-yl)bicyclo [3.1.0]hexan-6-yl)-1H-pyrazol-3-yl)-3-(trifluoromethyl)pyridin-2-amine], the Ki was found to be 2 nM.

`CC(C)n1nc(-c2cnc(N)c(C(F)(F)F)c2)cc1[C@H]1[C@@H]2C[C@@H](OC3COC3)C[C@@H]21` [compound 294, 5-(1-isopropyl-5-((1R,3s,5S,6r)-3-(oxetan-3-yloxy)bicyclo[3.1.0]hexan-6-yl)-1H-pyrazol-3-yl)-3-(trifluoromethyl)pyridin-2-amine] had an inhibitory constant (Ki) of 8.9 nM.

Take `Nc1ncc(-c2cc([C@H]3[C@@H]4C[C@@H](N5CCOCC5)C[C@@H]43)n(CC3CC3)n2)cc1OC(F)F` [compound 279, 5-(1-(cyclopropylmethyl)-5-((1R,3s,5S,6r)-3-morpholinobicyclo [3.1.0]hexan-6-yl)-1H-pyrazol-3-yl)-3-(difluoromethoxy)pyridin-2-amine]: the affinity corresponds to a Ki of 1.6 nM.

In turn, `CC(C)n1nc(-c2cnc(N)c(C(F)(F)F)c2)cc1[C@H]1[C@@H]2C[C@H](N3CCCOCC3)C[C@@H]21` [compound 100, 5-(5-((1R,3r,5S,6r)-3-(1,4-oxazepan-4-yl)bicyclo[3.1.0]hexan-6-yl)-1-isopropyl-1H-pyrazol-3-yl)-3-(trifluoromethyl)pyridin-2-amine] registered a Ki of 1.03 nM.

The molecule `CC(C)n1nc(-c2cnc3cnn([C@@H](C)c4ccccn4)c3c2)cc1[C@H]1[C@@H]2C[C@@H](N3CCOCC3)C[C@@H]21` [compound 32, 4-((1R,3R,5S,6r)-6-(1-isopropyl-3-(1-((S)-1-(pyridin-2-yl)ethyl)-1H-pyrazolo[4,3-b]pyridin-6-yl)-1H-pyrazol-5-yl)bicyclo[3.1.0]hexan-3-yl)morpholine] came in with a Ki of 4.08 nM.

As to `Nc1ncc(-c2cc([C@H]3[C@@H]4C[C@H](N5CCOCC5)C[C@@H]43)n(C3CCCC3)n2)cc1OC(F)F` [compound 129, 5-(1-cyclopentyl-5-((1R,3r,5S,6r)-3-morpholinobicyclo[3.1.0]hexan-6-yl)-1H-pyrazol-3-yl)-3-(difluoromethoxy)pyridin-2-amine], the Ki was 4.52 nM.

`CC(C)n1nc(-c2cnc(N)c(OC(F)F)c2)cc1[C@@H]1[C@@H]2C[C@@H](O)C[C@@H]21` [compound 123, (1R,3s,5S,6s)-6-(3-(6-amino-5-(difluoromethoxy)pyridin-3-yl)-1-isopropyl-1H-pyrazol-5-yl) bicyclo[3.1.0]hexan-3-ol] displayed a Ki above 321 nM.

As to `CC(C)n1nc(-c2cnc(N)c(C(F)(F)F)c2)cc1[C@H]1[C@@H]2C[C@@H](N3CC4(CCCO4)C3)C[C@@H]21` [compound 222, 5-(5-((1R,3s,5S,6r)-3-(5-oxa-2-azaspiro[3.4]octan-2-yl)bicyclo [3.1.0]hexan-6-yl)-1-isopropyl-1H-pyrazol-3-yl)-3-(trifluoromethyl) pyridin-2-amine], the Ki was 2.7 nM. In other words, the single-digit nanomolar range.

`CC(C)n1nc(-c2cnc(N)c(C(F)(F)F)c2)cc1[C@H]1[C@@H]2C[C@H](N3C[C@@H]4C[C@H]3CO4)C[C@@H]21` [compound 72, 5-(5-((1R,3r,5S,6S)-3-((1S,4S)-2-oxa-5-azabicyclo[2.2.1]heptan-5-yl)bicyclo[3.1.0]hexan-6-yl)-1-isopropyl-1H-pyrazol-3-yl)-3-(trifluoromethyl)pyridin-2-amine]: the Ki came out at 3.48 nM.

In turn, `CC(C)n1nc(-c2cnc(N)c(C(=O)N3CCCC3)c2)cc1[C@H]1[C@@H]2C[C@@H](N3CC(F)C3)C[C@@H]21` [compound 106, (2-amino-5-(5-((1R,3s,5S,6r)-3-(3-fluoroazetidin-1-yl)bicyclo [3.1.0]hexan-6-yl)-1-isopropyl-1H-pyrazol-3-yl)pyridin-3-yl) (pyrrolidin-1-yl)methanone] came in with an inhibition constant Ki above 321 nM.
